Data set [1] relates to L. infantum axenic amastigotes. In words: In vitro inhibition of axenic amastigote growth (MTT). Format: cell-based, Leishmania infantum. The settings on record: 72 h, read-out: axenic amastigote EC50 ± SE (95% CI). The procedure:
Axenic amastigote growth inhibition was evaluated using L. infantum strain (MHOM/TN/80/IPT1, WHO international reference strain). Axenic amastigote cultures were obtained as described previously with modifications.[45] Promastigotes were grown in Schneider’s Drosophila medium (SIGMA) containing 10% heat-inactivated fetal calf serum (FCS)(GIBCO-BRL) and 2% gentamicin (50 mg/L)(Sigma) in 25 cm^2 flasks at 22 °C. After 4–5 days, the parasites were adjusted to 1 × 10^6 parasites/mL in axenic medium MAA/20 consisting of modified medium 199 (Gibco BRL) with Hanks’ salts supplemented with 0.5% tryptic soy broth (Sigma), 0.01 mM bathocuproine disulfonic acid, 3 mM L-cysteine, 15 mM D-glucose, 5 mM L-glutamine, 4 mM NaHCO3, 0.023 mM bovine hemin, and 25 mM HEPES to a final pH of 6.5 and supplemented with 20% pretested FCS, and axenic amastigotes were obtained by shifting the incubation conditions: 198 μL of suspension was seeded in triplicate in 96-well flat bottom microplates and incubated at 37 °C, 5% CO2 for 48 h in order to allow the axenization. The amastigote cells were visualized under the light microscope to confirm transformation. Then, 2 μL of the selected compounds with varying concentrations were added: 100, 50, 25, 12.5, 6.25, 3.12, 1.56, 0.8, 0.4, 0.2, 0.1, 0.05 μM. […] Each experiment was conducted in triplicate for each drug concentration, and three independent experiments were performed. To estimate the 50% inhibitory concentration (IC50), the (3-[4.5-dimethylthiazol-2-yl]-2.5-diphenyltetrazolium bromide) (MTT) micromethod was used throughout the experiments with modification. After 72 h of incubation, 30 μL of MTT was added to each well, and the plates were further incubated for 3 h. The absorbance at 550 nm was measured with a 96-well scanner. Antileishmanial activity was expressed as the percentage of inhibition in the number of live parasites compared to that in the control (nontreated parasites). % inhibition was calculated as follows: % growth inhibition = [(absorb cell with drug × 100)/absorb cell control] – 100. Results were analyzed by GraphPad Prism 5.0, dose–response curves were obtained and IC50 deduced (GraphPad Software Inc., San Diego, USA).

Data set [2] can be described thus: Cytotoxicity assay on primary murine macrophages (MTT). Format: cell-based, Balb/c mice. The settings on record: Balb/c, mouse, primary peritoneal exudate macrophages, read-out: primary murine macrophage CC50 ± SE (95% CI). The protocol: (§1) To assess the cytotoxicity of compounds on mammalian macrophages, we tested all the compounds against both human leukemia monocyte cell line (THP-1 cells, ATCC) differentiated into macrophages by treatment with 40 ng/mL of phorbol myristate acetate (PMA; Sigma) for 48 h and peritoneal exudate macrophages harvested from Balb/c mice. […] Cell viability was evaluated using the MTT assay, and the concentration of the compound that produced a 50% reduction of cell viability in treated culture cells with respect to untreated ones (CC50) was determined by GraphPad Prism 5.0 (GraphPad Software Inc., San Diego, USA). […] The selectivity index for each compound was calculated as the ratio of cytotoxicity (CC50) in macrophages cells to activity (IC50) against Leishmania axenic amastigotes. The experiments were performed in triplicate, and two independent experiments were conducted.

For data set [3], the system named is human THP-1-derived macrophages. In words: Cytotoxicity assay on human THP-1-derived macrophages (MTT). Format: cell-based. The protocol:
as §1

Experiment in data set [4]: as above
Format: cell-based. The settings on record: human, THP-1 cells differentiated into macrophages with PMA, 72 h, MTT; read-out: human THP-1-derived macrophage CC50 ± SE (95% CI). The protocol: as §1

Data set [5] concerns L. infantum intramacrophage amastigotes. In words: Ex vivo inhibition of intramacrophage amastigote growth. Format: cell-based, Leishmania infantum. The settings on record: Leishmania infantum, Macrophage, in Mus musculus, 72 h, murine macrophages infected with L. infantum amastigotes, 72 h, read-out: intramacrophage amastigote EC50 ± SE (95% CI). The protocol: Balb/c murine macrophages were used to perform ex vivo assay since the parasites infect them more effectively. Macrophages (5 × 10^5/well) were placed on glass coverslips within a 24-well culture plate and incubated with complete RPMI in a 5% CO2 incubator at 37 °C for 4 h to achieve cell adhesion. After this time, L. infantum amastigotes from spleens of previously infected hamsters were added onto the macrophages adhering to the coverslips at the ratio of 10:1 (parasites/macrophages). After 24 h of infection, the noninternalized amastigotes were removed by washes with RPMI. The infected macrophages were incubated with complete RPMI medium (control) or medium containing different concentrations of compounds in a 5% CO2 incubator at 37 °C for 72 h. Then, the coverslips were fixed with methanol, stained with Giemsa 10%, and analyzed by optical microscopy. The percentage of the infected macrophages and the number of amastigotes per infected macrophage were determined by random counting of 100 cells in each coverslip. Infection was judged to be adequate if more than 70% of the macrophages in the untreated control were infected. Activity for each compound was expressed as percentage of parasite burden reduction = infectivity index of treated cells/infectivity index of untreated cells. The infectivity index was calculated as follows: number of infected macrophages × mean number of amastigotes per macrophage / total number of macrophages. Nonlinear regression analysis (Graph-Pad Software Inc., San Diego, USA) was used for curve fitting and calculation of 50% inhibitory concentrations (IC50). The experiments were performed in triplicate, and two independent experiments were conducted.

The test system of data set [6] is L. infantum axenic amastigotes. The settings on record: stated for the control (Euroclone) in the axenic amastigote method; read-out: IC50 of the control drug; cited from earlier work.
Data set [7] has as its target T1, Leishmania infantum TR (LiTR) (Leishmania infantum, UniProt A4HSF7).
T1 construct: The TbTR and LiTR genes were subcloned in a pET28b vector; 6-His (cleaved yes); made in house; host or cells: E. coli BL21(DE3), pET28b
In words: LiTR enzymatic inhibition assay (NADPH oxidation at 340 nm). Format: biochemical. The protocol:
(§2) Enzymatic inhibition assays were performed in 50 mM HEPES pH 7.4, 40 mM NaCl at 25 °C using a JASCO V650 spectrophotometer equipped with a JASCO EHC 716 Peltier element to ensure controlled temperature. The first experiment was carried out using 50 nM LiTR, 10 or 100 μM compound to be tested, 150 μM trypanothione (trypanothione disulfide purchased from Bachem), and 100 μM NADPH (tetrasodium salt, purchased from Calbiochem). The best inhibitor candidates were then tested at concentrations ranging from 1 nM to 250 μM to determine the IC50. Assays were initiated upon addition of 100 μM NADPH to 50 nM LiTR or hGR (human glutathione reductase purchased from Sigma-Aldrich) in the presence of different concentration of compounds and 150 μM trypanothione. For both experiments, the oxidation of NADPH was followed as a decrease in absorbance at 340 nm. For each concentration of compound, the initial velocity of the NADPH oxidation was used to determine the percentage of LiTR activity with respect to that in the absence of any compound. The IC50 was determined upon fitting the residual activity of TR as a dose–response logistic equation defined as ymin + (ymax – ymin)/(1 + (x/IC50)^slope). […] The Ki was determined graphically upon linear fitting of data points for each trypanothione concentration. Data analysis was performed with QtiPlot 0.9.8.9 svn 2288, and graphs were made with Matplotlib.
(§3) Figure S3. Inhibition assay of LiTR (red) and hGR (grey) with compounds 5-6, 9-10 and 14.
(§4) Enzymatic assays were carried out at 25°C on a JASCO V650 spectrophotometer equipped with a JASCO EHC716 Peltier unit. Compound concentrations used during the experiments range from 1 […]
(§5) higher than 30 µM and 20 µM, respectively. Briefly, 50 nM LiTR or hGR (Sigma Aldrich) were mixed in 50 mM HEPES pH 7.4, 40 mM NaCl with each compound and 150 µM trypanothione or glutathione. After 3-minute incubation at 25°C, the measurement was initiated upon addition of 100 µM NADPH. The oxidation of NADPH was followed as a decrease in absorbance at 340 nm. Each initial velocity of LiTR enzymatic reaction with the compounds was expressed as a percentage of residual activity with respect to that in the absence of compound. Each data point is the mean of two measurements. The IC50 was determined upon fitting the data as a dose response logistic equation defined by the Kaleidagraph software as ymin+(ymax-ymin)/(1+(x/IC50)^slope).
(§6) (1 picture or pasted object on this page, not shown here)

In data set [8] the test system is primary murine macrophages. Description: Cytotoxicity assay on primary murine macrophages (MTT). Format: cell-based, Balb/c mice. The settings on record: Balb/c peritoneal macrophages, 72 h, read-out: primary murine macrophage CC50 ± SE (95% CI). The procedure:
as §1

A short description of data set [9]: Solubility observed in the enzymatic assay. The settings on record: no reliable data at concentrations higher than 30 µM (5) and 20 µM (6). Format: physicochemical. The protocol: as §3, §4, §5, §6
Data set [10] addresses T2, hGR (human glutathione reductase) (Homo sapiens, UniProt P00390).
T2 construct: purchased Sigma-Aldrich
T2 sequence (P00390 44-522): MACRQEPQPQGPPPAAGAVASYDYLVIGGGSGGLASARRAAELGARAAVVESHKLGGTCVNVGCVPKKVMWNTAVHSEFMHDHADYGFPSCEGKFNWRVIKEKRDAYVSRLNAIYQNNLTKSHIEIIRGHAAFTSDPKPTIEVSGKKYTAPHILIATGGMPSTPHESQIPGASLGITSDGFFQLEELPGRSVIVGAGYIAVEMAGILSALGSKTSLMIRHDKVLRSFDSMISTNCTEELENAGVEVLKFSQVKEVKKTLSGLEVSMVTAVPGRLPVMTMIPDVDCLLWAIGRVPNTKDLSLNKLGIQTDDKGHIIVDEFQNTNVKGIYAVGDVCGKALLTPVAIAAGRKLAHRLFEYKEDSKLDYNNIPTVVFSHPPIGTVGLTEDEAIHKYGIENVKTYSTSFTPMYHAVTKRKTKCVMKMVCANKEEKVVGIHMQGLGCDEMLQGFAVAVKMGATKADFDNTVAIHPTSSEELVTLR
Description: hGR enzymatic inhibition assay (NADPH oxidation at 340 nm). Format: biochemical. The procedure:
as §2, §3, §4, §5, §6

Molecules are shown by their SMILES. Read-outs that look alike come from different tables or passages of the source.

One may read the EC50 as the concentration needed to bring the measured effect to its halfway point. Broadly, the CC50 is the concentration at which the toxic effect on the cells reaches its halfway point. The IC50 is the midpoint of a concentration-inhibition curve.

T1 sequence (A4HSF7 1-491): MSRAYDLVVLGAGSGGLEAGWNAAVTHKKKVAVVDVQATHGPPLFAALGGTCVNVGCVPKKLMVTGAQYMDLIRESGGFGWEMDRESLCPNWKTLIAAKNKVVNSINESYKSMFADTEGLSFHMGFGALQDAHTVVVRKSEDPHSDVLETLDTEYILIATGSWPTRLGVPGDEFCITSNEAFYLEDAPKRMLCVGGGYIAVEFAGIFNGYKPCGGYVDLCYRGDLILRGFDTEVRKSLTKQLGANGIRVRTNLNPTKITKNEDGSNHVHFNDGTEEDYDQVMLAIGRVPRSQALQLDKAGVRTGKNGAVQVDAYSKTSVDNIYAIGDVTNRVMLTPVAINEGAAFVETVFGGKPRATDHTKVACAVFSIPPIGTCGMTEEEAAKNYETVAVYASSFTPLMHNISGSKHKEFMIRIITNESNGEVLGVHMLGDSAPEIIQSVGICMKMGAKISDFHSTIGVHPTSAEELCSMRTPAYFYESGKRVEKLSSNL

In the case of `C[C@@H]1[C@H](O)[C@@H](C)/C=C/C=C/C=C/C=C/C=C/C=C/C=C/[C@H](O[C@@H]2O[C@H](C)[C@@H](O)[C@H](N)[C@@H]2O)C[C@@H]2O[C@](O)(C[C@@H](O)C[C@@H](O)[C@H](O)CC[C@@H](O)C[C@@H](O)CC(=O)O[C@H]1C)C[C@H](O)[C@H]2C(=O)O` [AmpB, Amphotericin B, reference compound], the values for the EC50 in data set [1] (Leishmania infantum) and in data set [5] were 0.8 ± 0.4 µM and 0.54 ± 0.3 µM, respectively. Moreover, the CC50 at 72 h in data set [2] amounted to 16.7 ± 2.05 µM; in data set [4] it was 21.1 ± 3 µM. The “SI = human THP-1-derived macrophage CC50/axenic amastigote EC50” value in data set [3] was found to be 26.4. For the same compound, the IC50 in data set [6] was 0.5 µM.

Consider `O=C(NCCc1ccc(F)cc1)c1ccc(CN(C(=O)N2CCN(CCCc3ccccc3)CC2)c2ccc(F)cc2)o1` [Compound 5, N-((5-((4-Fluorophenethyl)carbamoyl)furan-2-yl)methyl)-N-(4-fluorophenyl)-4-(3-phenylpropyl)piperazine-1-carboxamide], for which the EC50 in data set [1] amounted to 12 ± 1.7 µM; in [1] (Leishmania infantum), 11.5 ± 2.1 µM. Besides, the IC50 was found to be 54.6 ± 20.9 µM in data set [7] (50 nM LiTR, 150 μM trypanothione, 100 μM NADPH, 25 °C) and 163 ± 58.8 µM in data set [10] (50 nM hGR, 100 μM NADPH, 25 °C). In addition, the “decrease in TR activity” value in [7] (compound at 100 μM) turned out to be 35.1%. Also, the “LiTR residual activity %” value in data set [7] (compound at 100 μM, mean ± SD, n = 3, 100 µM) was 65.4 ± 3.0 @100 μM %. Moreover, the remaining activity at 100 µM in data set [7] (compound at 100 μM, mean ± SD, n = 3, read-out: LiTR residual activity %) was 64.9%. The CC50 in data set [8] was 9.1 ± 0.9 µM; in [3] (72 h, MTT, read-out: human THP-1-derived macrophage CC50 ± SE (95% CI)), 6.5 ± 0.6 µM. For the same compound, the figures for the CC50 at 72 h in data set [2] and in data set [4] were 12.9 ± 0.9 µM and 9.6 ± 0.71 µM, respectively. In data set [3], the “SI = human THP-1-derived macrophage CC50/axenic amastigote EC50” value is reported as 0.8. In addition, in [9], the “solubility in the enzymatic assay” value is reported as “low solubility”. In data set [10] (hGR versus LiTR), the “SI (ratio of GR IC50/TR IC50)” value was found to be 3.

(Values after PMC10788915, “Fragment Merging, Growing, and Linking Identify New Trypanothione Reductase Inhibitors for Leishmaniasis” (Journal of Medicinal Chemistry, 2024).)
